Measured values published in US10328053B2 (Gilead Sciences, Inc., priority 2016, dated 2019).

Columns and labels:
[1] = tested on: HBV AD38 viral particles in HepG2 cell line overexpressing NTCP; assay: HBV DNA Quantification Assay; format: cell-based; details: Hepatitis B virus, HepG2, 120 h, HBV-infected HepG2-NTCP cells, 5 days incubation, HBV DNA in culture supernatant (QuantiGene 2.0); geometric mean of a minimum of four determinations
Procedure: HBV DNA Quantification Assay
A HepG2 cell line overexpressing the HBV virus attachment receptor sodium-taurocholate cotransporting polypeptide (NTCP) was grown to confluency in DMEM growth medium, Dulbecco's Modified Eagle Medium without sodium pyruvate (Life Technologies, Rockville, Md.) supplemented with 10% FBS (Thermo Scientific, Waltham, Md.), 1% penicillin/streptomycin (Life Technologies, Rockville, Md.) and 2 mM L-glutamine (Life Technologies, Rockville, Md.) in T175 flasks. Cells were infected with HBV AD38 viral particles (Texcell, Frederick, USA) at 4000 genome equivalents per cell. After allowing viral infection to take place for 4 days, the infected cells were harvested from the flasks by trypsinization, washed twice with OptiMEM (Life Technologies, Rockville, Md.) and re-suspended in DMEM containing 2% FBS and 1% DMSO at a density of 0.25E6 cells/ml. Infected cells were seeded on 384 well collagen coated plates (Greiner, Austria) at a density of 20,000 cells/well containing serially diluted compounds of the present disclosure or DMSO (0.5%) in a final volume of 80 μl. The assay plates were incubated for a period of 5 days and the antiviral activity of the test compounds were assayed by detecting the presence of HBV DNA in the culture supernatant using the QuantiGene™ 2.0 nucleic acid quantification kit (Affymetrix, Santa Clara, Calif.).
The culture supernatant was harvested and treated with lysis buffer containing Proteinase K (Affymetrix, Santa Clara, Calif.). The supernatant was incubated with HBV viral DNA specific probes (Affymetrix, Santa Clara, Calif.) for 30 minutes at 55° C. This was followed by addition of 0.2M NaOH for 30 minutes at room temperature to denature the DNA, followed by addition of Neutralization buffer (Affymetrix, Santa Clara, Calif.). The resulting lysed and neutralized supernatant was then added to QuantiGene™ 2.0 384 well plates coated with capture oligonucleotides and incubated overnight at 55° C. The HBV specific probe set consists of Capture Extender oligonucleotides (CE's) and blocking probes. Following the overnight incubation, the wells were incubated for one hour sequentially with a Pre-Amplifier, Amplifier and Labeled probes conjugated to alkaline phosphatase with a wash step between incubations. After the final wash step, the alkaline phosphatase substrate (Luminol APS5) was added and the resulting luminescence signal was read in an EnVision Multilabel Plate Reader (PerkinElmer, Santa Clara, Calif.). The EC50 values were calculated from the fit of the dose—response curves to a four-parameter equation. All EC50 values represent geometric mean values of a minimum of four determinations.

[2] = Hepatic Stability Assay (in vitro half-life method); format: in vitro ADME; parameters: dose or concentration left out as unconfirmed; details: pooled cryopreserved hepatocytes, 37° C., 1×10^6 cells/mL, 0-6 hours, LC-MS/MS, 39.5 hours is the maximum detectable half life, read-out: t½ (converted)
Outline: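 Pooled cryopreserved hepatocytes (1×10^6 cells/mL) incubated with compound at […] test concentration, 37° C.; samples at 0, 1, 3 and 6 h quantified by LC-MS/MS. Half-life from rate of compound disappearance, scaled to predicted hepatic clearance via well-stirred model.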

Row | Structure (SMILES) | EC50 [1] | half-life [2]
1 | Cc1c(C(=O)C(=O)NC2(c3c[nH]nn3)CC(F)(F)C2)c2n(c1C(=O)Nc1ccc(F)cc1)CCC2 [Example 32, 7-(2-((3,3-difluoro-1-(1H-1,2,3-triazol-4-yl)cyclobutyl)amino)-2-oxoacetyl)-N-(4-fluorophenyl)-6-methyl-2,3-dihydro-1H-pyrrolizine-5-carboxamide] | 8.5 nM | 8.8 h
2 | CNC(=O)[C@@](C)(NC(=O)C(=O)c1c(C)c(C(=O)Nc2ccc(F)c(F)c2)n2c1CCC2)C(F)(F)F [Example 137, (R)—N-(3,4-difluorophenyl)-6-methyl-7-(2-oxo-2-((1,1,1-trifluoro-2-methyl-3-(methylamino)-3-oxopropan-2-yl)amino)acetyl)-2,3-dihydro-1H-pyrrolizine-5-carboxamide] | 158 nM | 7.4 h
3 | Cc1c(C(=O)C(=O)NC2(C(=O)NC3(C)CS(=O)(=O)C3)CC(F)(F)C2)c2n(c1C(=O)Nc1ccc(F)c(Cl)c1)CCC2 [Example 9, N-(3-chloro-4-fluorophenyl)-7-(2-((3,3-difluoro-1-((3-methyl-1,1-dioxidothietan-3-yl)carbamoyl)cyclobutyl)amino)-2-oxoacetyl)-6-methyl-2,3-dihydro-1H-pyrrolizine-5-carboxamide] | 103 nM | 11.7 h
4 | CNC(=O)C1(NC(=O)C(=O)c2c(C)c(C(=O)Nc3ccc(F)c(Cl)c3)n3c2[C@@H]2C[C@@H]2C3)CC(F)(F)C1 [Example 33, (1aS,6bR)—N-(3-chloro-4-fluorophenyl)-6-(2-((3,3-difluoro-1-(methylcarbamoyl)cyclobutyl)amino)-2-oxoacetyl)-5-methyl-1,1a,2,6b-tetrahydrocyclopropa[a]pyrrolizine-4-carboxamide] | 27.2 nM | 4.3 h
5 | Cc1c(C(=O)C(=O)NC2(c3nncs3)CC2)c2n(c1C(=O)Nc1ccc(F)c(Cl)c1)CCC2 [Example 12, 7-(2-((1-(1,3,4-thiadiazol-2-yl)cyclopropyl)amino)-2-oxoacetyl)-N-(3-chloro-4-fluorophenyl)-6-methyl-2,3-dihydro-1H-pyrrolizine-5-carboxamide] | 5 nM | 6.4 h
6 | Cc1c(C(=O)C(=O)NC2(c3c[nH]nn3)CC2)c2n(c1C(=O)Nc1ccc(F)c(Cl)c1)C[C@H](F)C2 [Example 45, (R)-7-(2-((1-(1H-1,2,3-triazol-4-yl)cyclopropyl)amino)-2-oxoacetyl)-N-(3-chloro-4-fluorophenyl)-2-fluoro-6-methyl-2,3-dihydro-1H-pyrrolizine-5-carboxamide] | 9.1 nM | 13.3 h
7 | Cc1c(C(=O)C(=O)NC2(c3c[nH]nn3)CC2)c2n(c1C(=O)Nc1ccc(F)c(F)c1F)CCC2 [Example 111, 7-(2-((1-(1H-1,2,3-triazol-4-yl)cyclopropyl)amino)-2-oxoacetyl)-6-methyl-N-(2,3,4-trifluorophenyl)-2,3-dihydro-1H-pyrrolizine-5-carboxamide] | 154 nM | 10.1 h
8 | Cc1c(C(=O)C(=O)NC2(c3c[nH]nn3)CC2)c2n(c1C(=O)Nc1cccc(Cl)c1)CCC2 [Example 74, 7-(2-((1-(1H-1,2,3-triazol-4-yl)cyclopropyl)amino)-2-oxoacetyl)-N-(3-chlorophenyl)-6-methyl-2,3-dihydro-1H-pyrrolizine-5-carboxamide] | 42 nM | 22.2 h
9 | Cc1c(C(=O)C(=O)NC2(c3c[nH]nn3)CC(F)(F)C2)c2n(c1C(=O)Nc1ccc(F)c(Cl)c1)[C@@H]1C[C@@H]1C2 [Example 39, (1aR,6aR)—N-(3-chloro-4-fluorophenyl)-5-(2-((3,3-difluoro-1-(1H-1,2,3-triazol-4-yl)cyclobutyl)amino)-2-oxoacetyl)-4-methyl-1,1a,6,6a-tetrahydrocyclopropa[b]pyrrolizine-3-carboxamide] | 2.1 nM | 4.2 h
10 | Cc1c(C(=O)C(=O)NC2(c3c[nH]nn3)CC(F)(F)C2)c2n(c1C(=O)Nc1ccc(F)c(F)c1)[C@@H]1C[C@@H]1C2 [Example 42, (1aR,6aR)-5-(2-((3,3-difluoro-1-(1H-1,2,3-triazol-4-yl)cyclobutyl)amino)-2-oxoacetyl)-N-(3,4-difluorophenyl)-4-methyl-1,1a,6,6a-tetrahydrocyclopropa[b]pyrrolizine-3-carboxamide] | 2.1 nM | 3.5 h
11 | CNC(=O)C1(NC(=O)C(=O)c2c(C)c(C(=O)Nc3cc(F)c(F)c(F)c3)n3c2CCC3)CC(F)(F)C1 [Example 36, 7-(2-((3,3-difluoro-1-(methylcarbamoyl)cyclobutyl)amino)-2-oxoacetyl)-6-methyl-N-(3,4,5-trifluorophenyl)-2,3-dihydro-1H-pyrrolizine-5-carboxamide] | 24 nM | 26.5 h
12 | Cc1c(C(=O)C(=O)NC2(C(F)(F)F)COC2)c2n(c1C(=O)Nc1ccc(F)c(Cl)c1)CCC2 [Example 7, N-(3-chloro-4-fluorophenyl)-6-methyl-7-(2-oxo-2-((3-(trifluoromethyl)oxetan-3-yl)amino)acetyl)-2,3-dihydro-1H-pyrrolizine-5-carboxamide] | 5.8 nM | 4.8 h
13 | Cc1c(C(=O)C(=O)N[C@](C)(CO)C(F)(F)F)c2n(c1C(=O)Nc1ccc(F)c(Cl)c1)CCC2 [Example 132, (R)—N-(3-Chloro-4-fluorophenyl)-6-methyl-7-(2-oxo-2-((1,1,1-trifluoro-3-hydroxy-2-methylpropan-2-yl)amino)acetyl)-2,3-dihydro-1H-pyrrolizine-5-carboxamide] | 8.3 nM | 7.7 h
14 | Cc1c(C(=O)C(=O)NC2(c3c[nH]nn3)CC(F)(F)C2)c2n(c1C(=O)Nc1ccc(F)c(C#N)c1)CCC2 [Example 37, N-(3-cyano-4-fluorophenyl)-7-(2-((3,3-difluoro-1-(1H-1,2,3-triazol-4-yl)cyclobutyl)amino)-2-oxoacetyl)-6-methyl-2,3-dihydro-1H-pyrrolizine-5-carboxamide] | 5.6 nM | 10.9 h
15 | Cc1c(C(=O)C(=O)NC2(c3c[nH]nn3)CC2)c2n(c1C(=O)Nc1ccc(F)c(C(F)F)c1)CCC2 [Example 77, 7-(2-((1-(1H-1,2,3-triazol-4-yl)cyclopropyl)amino)-2-oxoacetyl)-N-(3-(difluoromethyl)-4-fluorophenyl)-6-methyl-2,3-dihydro-1H-pyrrolizine-5-carboxamide] | 19 nM | 22.1 h
16 | Cc1c(C(=O)C(=O)NC2(c3c[nH]nn3)CC2)c2n(c1C(=O)Nc1cc(Cl)cc(Cl)c1)CCC2 [Example 102, 7-(2-((1-(1H-1,2,3-triazol-4-yl)cyclopropyl)amino)-2-oxoacetyl)-N-(3,5-dichlorophenyl)-6-methyl-2,3-dihydro-1H-pyrrolizine-5-carboxamide] | 112 nM | 4.8 h
17 | CNC(=O)C1(NC(=O)C(=O)c2c(C)c(C(=O)Nc3ccc(F)c(Cl)c3)n3c2CCC3)CC1 [Example 105, N-(3-chloro-4-fluorophenyl)-6-methyl-7-(2-((1-(methylcarbamoyl)cyclopropyl)amino)-2-oxoacetyl)-2,3-dihydro-1H-pyrrolizine-5-carboxamide] | 170 nM | 24.3 h
18 | Cc1c(C(=O)C(=O)NC2(c3c[nH]nn3)CC2)c2n(c1C(=O)Nc1ccc(F)c(Cl)c1)C[C@@H](F)C2 [Example 46, (S)-7-(2-((1-(1H-1,2,3-triazol-4-yl)cyclopropyl)amino)-2-oxoacetyl)-N-(3-chloro-4-fluorophenyl)-2-fluoro-6-methyl-2,3-dihydro-1H-pyrrolizine-5-carboxamide] | 264 nM | 16 h
19 | Cc1c(C(=O)C(=O)NC2(c3c[nH]nn3)CC2)c2n(c1C(=O)Nc1cc(F)cc(C#N)c1)CCC2 [Example 126, 7-(2-((1-(1H-1,2,3-triazol-4-yl)cyclopropyl)amino)-2-oxoacetyl)-N-(3-cyano-5-fluorophenyl)-6-methyl-2,3-dihydro-1H-pyrrolizine-5-carboxamide] | 166 nM | 10.7 h
